In patent US20010043936A1, “CHEMICAL COMPOSITION” (priority 1997, published 2001):

How the values were obtained:
[1] = tested on: Mixed Bacteria; experiment: Inoculation test of preserved cream formulation with mixed bacteria, surviving organisms counted; format: cell-based; details: control: IPBC 25 ppm, PhOH 0 ppm in cream
[2] = tested on: Mixed Fungi; experiment: Inoculation test of preserved cream formulation with mixed fungi, surviving organisms counted; format: cell-based; details: control: IPBC 25 ppm, PhOH 0 ppm in cream
Experimental: A batch of a cream formulation comprising an oil-in-water emulsion containing 7.5 wt % Crodex A (an emulsifying wax ex-Croda Chemicals), 5.0 wt % propylene glycol and 87.5 wt % sterile water was prepared using a homogenising mixer.
Portions of the cream formulation were admixed with a preservative system comprising iodopropynyl butyl carbamate and phenoxyethanol at varying weight ratios of iodopropynyl butyl carbamate to phenoxyethanol. In each case the content of the iodopropynyl butyl carbamate in the cream formulation was kept constant at a level of 0.0025 wt % with respect of the total weight of the formulation.
Each portion of the formulation was divided into two. One specimen was inoculated with 7.5×10^7 mixed bacteria per g of cream. The other specimen was inoculated with 2.4×10^6 mixed fungi per g of cream.
For each specimen the number of surviving organisms was determined at 0 hours, […] and 72 hours after inoculation.

Question: What does the source list for iodopropynyl butyl carbamate [IPBC]?
Answer: organisms surviving, Mixed Bacteria, 0 Hours ([1]; 0 Hours): TNTC; organisms surviving, Mixed Bacteria, 24 Hours ([1]; 24 Hours): 1.8 × 10^6; organisms surviving, Mixed Bacteria, 72 Hours ([1]; 72 Hours): 2.9 × 10^5; organisms surviving, Mixed Fungi, 0 Hours ([2]; 0 Hours): 8 × 10^5; organisms surviving, Mixed Fungi, 24 Hours ([2]; 24 Hours): 1.2 × 10^5; organisms surviving, Mixed Fungi, 72 Hours ([2]; 72 Hours): 5.2 × 10^4
